Read-outs that look alike come from different tables or passages of the source.
Assays:
[1] = system: luciferase expression in the liver; test: In vivo luciferase mRNA expression rodent model (liver luciferase after tail vein injection of FLuc mRNA lipid nanoparticles); set-up: species or system mice; settings: liver 4 hours after administration, FLuc mRNA (L-6107) LNP 50% cationic lipid/10% DSPC/38.5% cholesterol/1.5% PEG-DMG; for Liver Luc @ 0.3 mg/kg dose: 0.3 mg mRNA/kg; for Liver Luc @ 1.0 mg/kg dose: 1.0 mg mRNA/kg
Procedure: Lipid nanoparticles were prepared and tested according to the general procedures described in PCT Pub. Nos. WO 2015/199952 and WO 2017/004143, the full disclosures of which are incorporated herein by reference. Briefly, cationic lipid, DSPC, cholesterol and PEG-lipid were solubilized in ethanol at a molar ratio of about 50:10:38.5:1.5 or about 47.5:10:40.8:1.7. Lipid nanoparticles (LNP) were prepared at a total lipid to mRNA weight ratio of approximately 10:1 to 30:1. The mRNA is diluted to 0.2 mg/mL in 10 to 50 mM citrate or acetate buffer, pH 4. Syringe pumps were used to mix the ethanolic lipid solution with the mRNA aqueous solution at a ratio of about 1:5 to 1:3 (vol/vol) with total flow rates above 15 mL/min. The ethanol was then removed and the external buffer replaced with PBS by dialysis. Finally, the lipid nanoparticles were filtered through a 0.2 µm pore sterile filter. Lipid nanoparticle particle size was approximately 55-95 nm diameter, and in some instances approximately 70-90 nm diameter as determined by quasi-elastic light scattering using a Malvern Zetasizer Nano ZS (Malvern, UK).
Studies were performed in 6-8 week old female C57BL/6 mice (Charles River) or 8-10 week old CD-1 (Harlan) mice (Charles River) according to guidelines established by an institutional animal care committee (ACC) and the Canadian Council on Animal Care (CCAC). Varying doses of mRNA-lipid nanoparticle were systemically administered by tail vein injection and animals euthanized at a specific time point (e.g., 4 hours) post-administration. Liver and spleen were collected in pre-weighed tubes, weights determined, immediately snap frozen in liquid nitrogen and stored at -80° C. until processing for analysis.
For liver, approximately 50 mg was dissected for analyses in a 2 mL FastPrep tubes (MP Biomedicals, Solon OH). ¼” ceramic sphere (MP Biomedicals) is added to each tube and 500 µL of Glo Lysis Buffer - GLB (Promega, Madison Wl) equilibrated to room temperature is added to liver tissue. Liver tissues were homogenized with the FastPrep24 instrument (MP Biomedicals) at 2 × 6.0 m/s for 15 seconds. Homogenate was incubated at room temperature for 5 minutes prior to a 1:4 dilution in GLB and assessed using SteadyGlo Luciferase assay system (Promega). Specifically, 50 µL of diluted tissue homogenate was reacted with 50 µL of SteadyGlo substrate, shaken for 10 seconds followed by 5 minute incubation and then quantitated using a CentroXS^3 LB 960 luminometer (Berthold Technologies, Germany). The amount of protein assayed was determined by using the BCA protein assay kit (Pierce, Rockford IL). Relative luminescence units (RLU) were then normalized to total µg protein assayed. To convert RLU to ng luciferase a standard curve was generated with QuantiLum Recombinant Luciferase (Promega).
The FLuc mRNA (L-6107 or L-7202) from Trilink Biotechnologies will express a luciferase protein, originally isolated from the firefly, photinus pyralis. FLuc is commonly used in mammalian cell culture to measure both gene expression and cell viability. It emits bioluminescence in the presence of the substrate, luciferin. This capped and poly-adenylated mRNA was fully substituted with respect to uridine and/or cytidine nucleosides.
The cationic lipids shown in Table 2 have previously been tested with nucleic acids. For comparative purposes, these lipids were also used to formulate lipid nanoparticles containing the FLuc mRNA (L-6107) using an in line mixing method, as described in Example 1 and in PCT/US10/22614, which is hereby incorporated by reference in its entirety. Lipid nanoparticles were formulated using the following molar ratio: 50% Cationic lipid / 10% distearoylphosphatidylcholine (DSPC) / 38.5% Cholesterol / 1.5% PEG lipid (“PEG-DMG”, i.e., 1-(monomethoxy-polyethyleneglycol)-2,3-dimyristoylglycerol, with an average PEG molecular weight of 2000). […]

[2] = system: luciferase expression in the liver; test: as above; set-up: species or system mice; settings: 0.5 mg mRNA/kg, liver 4 hours after administration, LNP 50% cationic lipid/10% DSPC/38.5% cholesterol/1.5% PEG-DMA or 47.5/10/40.7/1.8
[3] = Determination of pKa of formulated lipids (TNS fluorescence assay in lipid nanoparticles); type: physicochemical
Procedure: As described elsewhere, the pKa of formulated cationic lipids is correlated with the effectiveness of LNPs for delivery of nucleic acids (see Jayaraman et al, Angewandte Chemie, International Edition (2012), 51(34), 8529-8533; Semple et al, Nature Biotechnology 28, 172-176 (2010)). […] Lipid nanoparticles comprising cationic lipid/DSPC/cholesterol/PEG-lipid (50/10/38.5/1.5 mol%) in PBS at a concentration of 0.4 mM total lipid were prepared using the in-line process as described in Example 1. TNS was prepared as a 100 µM stock solution in distilled water. Vesicles were diluted to 24 µM lipid in 2 mL of buffered solutions containing, 10 mM HEPES, 10 mM MES, 10 mM ammonium acetate, 130 mM NaCl, where the pH ranged from 2.5 to 11. An aliquot of the TNS solution was added to give a final concentration of 1 µM and following vortex mixing fluorescence intensity was measured at room temperature in a SLM Aminco Series 2 Luminescence Spectrophotometer using excitation and emission wavelengths of 321 nm and 445 nm. A sigmoidal best fit analysis was applied to the fluorescence data and the pKa was measured as the pH giving rise to half-maximal fluorescence intensity.

[4] = Table 3, cationic lipid formulated in LNP, TNS fluorescence assay, read-out: pKa

## CCCCCC/C=C\COC(=O)CCCCCCCC(CCCCCCCC(=O)OC/C=C\CCCCCC)OC(=O)CCCN(C)C [319 (2% PEG)]
[1]
  Liver Luc @ 0.3 mg/kg dose: 258 ± 67 ng luciferase/g liver
  Liver Luc @ 1.0 mg/kg dose: 681 ± 203 ng luciferase/g liver

## CCCCC/C=C\C/C=C\CCCCCCCCN(CCCCCCCC/C=C\C/C=C\CCCCC)CCN(C)C [A]
[1]
  Liver Luc @ 0.3 mg/kg dose: 77 ± 40 ng luciferase/g liver
  Liver Luc @ 1.0 mg/kg dose: 203 ± 122 ng luciferase/g liver

## CCCCC(CC)C(=O)OCCCCCCCCCC(CCCCCCCCCOC(=O)C(CC)CCCC)OC(=O)CCCN(C)C (centres unmarked) [Compound 137]
[1]
  Liver Luc @ 0.3 mg/kg dose: 281 ± 203 ng luciferase/g liver
  Liver Luc @ 1.0 mg/kg dose: 588 ± 303 ng luciferase/g liver

## CCCCCCCCCCN(C(=O)CCCCN(C)C)C(CCCCCCCCC(=O)OCC(CCCC)CCCCCC)CCCCCCCCC(=O)OCC(CCCC)CCCCCC (centres unmarked) [Compound I-7, BIS(2-BUTYLOCTYL) 10-(N-DECYL-5-(DIMETHYLAMINO)PENTANAMIDO)NONADECANEDIOATE]
[2]
  Liver Luc @ 0.5 mg/kg (ng luc/g liver): 2420 ± 1079 ng luc/g liver

## CCCCCCCCCCN(C(=O)CCCCN(CC)CC)C(CCCCCCCCC(=O)OCC(CCCC)CCCCCC)CCCCCCCCC(=O)OCC(CCCC)CCCCCC (centres unmarked) [Compound I-8, BIS(2-BUTYLOCTYL) 10-(N-DECYL-5-(DIETHYLAMINO)PENTANAMIDO)NONADECANEDIOATE]
[2]
  Liver Luc @ 0.5 mg/kg (ng luc/g liver): 7384 ± 1916 ng luc/g liver

## CCCCCCCCCCN(C(=O)CCCCN1CCCC1)C(CCCCCCCCC(=O)OCC(CCCC)CCCCCC)CCCCCCCCC(=O)OCC(CCCC)CCCCCC (centres unmarked) [Compound I-9, BIS(2-BUTYLOCTYL) 10-(N-DECYL-5-(PYRROLIDIN-1-YL)PENTANAMIDO)NONADECANEDIOATE]
[2]
  Liver Luc @ 0.5 mg/kg (ng luc/g liver): 2223 ± 777 ng luc/g liver

## CCCCCCCCCCN(C(=O)CCCN(C)C)C(CCCCCC(=O)OCC(CCCCCC)CCCCCCCC)CCCCCC(=O)OCC(CCCCCC)CCCCCCCC (centres unmarked) [Compound I-16, BIS(2-HEXYLDECYL) 7-(N-DECYL-4-(DIMETHYLAMINO)BUTANAMIDO)TRIDECANEDIOATE]
[2]
  Liver Luc @ 0.5 mg/kg (ng luc/g liver): 4678 ± 1243 ng luc/g liver

## CCCCCCCCCCN(C(=O)CCCN(C)C)C(CCCCCCCCC(=O)OCC(CCCC)CCCCCC)CCCCCCCCC(=O)OCC(CCCC)CCCCCC (centres unmarked) [Compound I-18, BIS(2-BUTYLOCTYL) 10-(N-DECYL-4-(DIMETHYLAMINO)BUTANAMIDO)NONADECANEDIOATE]
[2]
  Liver Luc @ 0.5 mg/kg (ng luc/g liver): 13301 ± 8071 ng luc/g liver

## CCCCCCCCCCN(C(=O)CCCN1CCCC1)C(CCCCCC(=O)OCC(CCCCCC)CCCCCCCC)CCCCCC(=O)OCC(CCCCCC)CCCCCCCC (centres unmarked) [Compound I-29, BIS(2-HEXYLDECYL) 7-(N-DECYL-4-(PYRROLIDIN-1-YL)BUTANAMIDO)TRIDECANEDIOATE]
[2]
  Liver Luc @ 0.5 mg/kg (ng luc/g liver): 5551 ± 1650 ng luc/g liver

## CCCCCCC(CCCC)COC(=O)CCCCCCCCC(CCCCCCCCC(=O)OCC(CCCC)CCCCCC)N(CC(CC)CCCC)C(=O)CCCN(C)C (centres unmarked) [Compound I-30, BIS(2-BUTYLOCTYL) 10-(4-(DIMETHYLAMINO)-N-(2-ETHYLHEXYL)BUTANAMIDO)NONADECANEDIOATE]
[3]; Table 1, cationic lipid formulated in LNP (cationic lipid/DSPC/cholesterol/PEG-lipid 50/10/38.5/1.5 mol%), TNS fluorescence, pH giving half-maximal fluorescence
  pKa: 6.47
[3]; Table 3, cationic lipid formulated in LNP, TNS fluorescence assay
  pKa: 6.47
[2]
  Liver Luc @ 0.5 mg/kg (ng luc/g liver): 13614 ± 3348 ng luc/g liver

## CCCCCCCCCCN(C(=O)CCCN(C)C)C(CCCCCCCCCOC(=O)C(CCCC)CCCCCC)CCCCCCCCCOC(=O)C(CCCC)CCCCCC (centres unmarked) [Compound I-32, 10-(4-(DIMETHYLAMINO)-N-DECYLBUTANAMIDO)NONADECANE-1,19-DIYL BIS(2-BUTYLOCTANOATE)]
[3]; Table 1, cationic lipid formulated in LNP (cationic lipid/DSPC/cholesterol/PEG-lipid 50/10/38.5/1.5 mol%), TNS fluorescence, pH giving half-maximal fluorescence, read-out: pKa
  pKa: 6.41
[2]
  Liver Luc @ 0.5 mg/kg (ng luc/g liver): 4091 ± 713 ng luc/g liver

## CCCCCCCCCCN(C(=O)CCN1CCCC1)C(CCCCCCCCC(=O)OCC(CCCC)CCCCCC)CCCCCCCCC(=O)OCC(CCCC)CCCCCC (centres unmarked) [Compound I-33, BIS(2-BUTYLOCTYL) 10-(N-DECYL-3-(PYRROLIDIN-1-YL)PROPANAMIDO)NONADECANEDIOATE]
[2]
  Liver Luc @ 0.5 mg/kg (ng luc/g liver): 1304 ± 278 ng luc/g liver

## CCCCCCCCCCN(C(=O)CCN(C)C)C(CCCCCC(=O)OCC(CCCCCC)CCCCCCCC)CCCCCC(=O)OCC(CCCCCC)CCCCCCCC (centres unmarked) [Compound I-35, BIS(2-HEXYLDECYL) 7-(N-DECYL-3-(DIMETHYLAMINO)PROPANAMIDO)TRIDECANEDIOATE]
[3]; [4]
  pKa: 6.39
[2]
  Liver Luc @ 0.5 mg/kg (ng luc/g liver): 14312 ± 4174 ng luc/g liver

## CCCCCCCCC(CCCCCC)COC(=O)CCCCCC(CCCCCC(=O)OCC(CCCCCC)CCCCCCCC)N(CCCCCC(=O)OCC(CC)CCCC)C(=O)CCN(C)C (centres unmarked) [Compound I-36, BIS(2-HEXYLDECYL) 7-(3-(DIMETHYLAMINO)-N-(6-((2-ETHYLHEXYL)OXY)-6-OXOHEXYL)PROPANAMIDO)TRIDECANEDIOATE]
[3]; [4]
  pKa: 6.55
[2]
  Liver Luc @ 0.5 mg/kg (ng luc/g liver): 10377 ± 1435 ng luc/g liver

## CCCCC/C=C\C/C=C\CCCCCCCCOCC(CN(C)C)OCCCCCCCC/C=C\C/C=C\CCCCC (centres unmarked) [DLinDMA]
[1]
  Liver Luc @ 0.3 mg/kg dose: 13 ± 3 ng luciferase/g liver
  Liver Luc @ 1.0 mg/kg dose: 67 ± 20 ng luciferase/g liver

## CCCCC/C=C\C/C=C\CCCCCCCCC(CCCCCCCC/C=C\C/C=C\CCCCC)OC(=O)CCN(C)C [MC2]
[1]
  Liver Luc @ 0.3 mg/kg dose: 4 ± 1 ng luciferase/g liver

## CCCCC/C=C\C/C=C\CCCCCCCCC(CCCCCCCC/C=C\C/C=C\CCCCC)OC(=O)CCCN(C)C [MC3]
[1]
  Liver Luc @ 1.0 mg/kg dose: 757 ± 528 ng luciferase/g liver

## CCCCC/C=C\C/C=C\CCCCCCCCC(CCCCCCCC/C=C\C/C=C\CCCCC)OC(=O)CCCCN(C)C [MC4]
[1]
  Liver Luc @ 0.3 mg/kg dose: 41 ± 10 ng luciferase/g liver

## CCCCC/C=C\C/C=C\CCCCCCCCC1(CCCCCCCC/C=C\C/C=C\CCCCC)OC[C@@H](CCN(C)C)O1 [XTC2]
[1]
  Liver Luc @ 0.3 mg/kg dose: 80 ± 28 ng luciferase/g liver
  Liver Luc @ 1.0 mg/kg dose: 237 ± 99 ng luciferase/g liver
